Legend:
aiibb3/Fibrinogen = aiibb3/Fibrinogen (Homo sapiens, UniProt P05106+P08514); assay: Integrin activation, adhesion aiibb3/Fibrinogen; assay type: cell-based; parameters: key: Not Active: Not active: ≤2 fold increase in adhesion; details: 50% serum; n = 3
Source text: (§1) Activating all integrins is necessary for firm endothelial cell adhesion for extravasation.

[1] = system: CT26 colon cancer syngeneic tumor; assay: Study 1: CT26 syngeneic tumor model in Balb/c mice; assay type: in vivo, Mouse (Mus musculus)
Experimental: Mouse colon carcinoma CT26 cells were obtained from American Type Culture Collection (ATCC), USA. Cells were grown in RPMI-1640 medium (Sigma, Cat # R6504) supplemented with 10% FBS (Invitrogen, Cat #10438-026), and 1% penicillin streptomycin (Thermo Fisher Scientific, Cat #15140-122). To establish allografts, 1 million CT26 cells were suspended in 50 μL of serum-free medium and mixed at 1:1 ratio with matrigel before implanting subcutaneously into the right flank of mice.
Prior to inoculation, the skin on the injection site was swabbed with alcohol. To establish allografts, CT26 cells were suspended in serum free medium at a concentration of (1×10^6)/50 μL, mixed with equal volume of matrigel (1:1 ratio) and 100 μL of this mixture was injected to each mouse by subcutaneous implantation using a 1 mL BD syringe attached to a 24 gauge needle.
CT26 tumor xenografts were measured after approximately 1 week of cell inoculation when they become palpable. When the average tumor volume reaches around 110 mm^3, animals were randomized into treatment groups group maintaining the average tumor volume of each group similar across groups for Study 1 and Study 2. In Study 3, the animals were randomized on the basis of body weights +1 day post cell implantation.
Tumor dimensions (length and breadth) were measured on days 0 (animal randomization based on tumor volume) and thrice weekly thereafter until study termination. Tumor volumes were calculated using the formula (b^2*l)*0.52 where l=length, b=breadth (Dusan Djokovic et al., BMC Cancer, 2010, 10:641). Tumor growth inhibition was calculated after normalizing the tumor volume on a given day to that on day 1.
Mean body weight loss and percent changes were calculated for each group. Similarly, mean tumor volume and percent tumor growth inhibition were calculated. The percent tumor growth inhibition (% TGI) as a function of anti-tumor efficacy were computed with respect to untreated vehicle control by comparing to the tumor volumes of day 1 using formula described below: % TGI=[1−(Treatment TVFinal−Treatment TVInitial)/(Control TVFinal−Control TVInitial)]*100
The test agent, Compound 1 was evaluated in CT26 syngeneic tumor model in Balb/c mice. Compound 1 was administered in mice when the starting tumor volume reached 109±7.1 mm^3 eight days after implantation of CT26 cells.

[2] = system: CD3+ CD8+ and CD3+ CD4+ tumor infiltrating T-cells; assay: Tumor infiltrating lymphocytes (TILs) by FACS in CT26 tumors; assay type: in vivo, Mouse (Mus musculus)
Experimental: On day 19 of treatment initiation tumors were isolated from study mice aseptically (n=5/group).
Tumor tissue was minced devoid of dead and necrotic tissue was mechanically disaggregated aseptically in RPMI medium without proteolytic enzymes in gentleMACS C-tubes using gentleMACS Octo Dissociator under the program 37C_m_TDK_1_30m (Miltenyi Biotec). Cell suspension was enriched for single cells by filtering the disaggregated mix through 70 μm cell strainer. Cells were pelleted at 300 g for 7 min at 4° C., washed twice with fresh complete media followed by FACS buffer containing PBS w/o calcium and magnesium (pH 7.4), 2% FBS and 0.05% sodium azide. Note: Proteolytic enzymes may chew up the antigen epitopes, therefore enzymatic dissociation is not performed.
Five million total viable cells were used as input for staining with the following fluorochrome conjugated antibodies for 30 min on ice in dark. Unbound stain was removed by washing cells in FACS buffer twice. […]
Unstained cells were used for setting up gates and focus single cells using INSPIRE acquisition software in Amnis FlowSight flow cytometer (Amnis Corporation, Seattle, WA) with 405, 488, 642 nm excitation lasers. […]
Before proceeding for FACS acquisition, we have recorded the total viable cell yield for each tumor sample. […] From the CD3 positive population gated out of viable 7AAD-ve population, the percentage of viable cells displaying CD3 positive signal was recorded using the statistics option in FACS software. […] Based on this information, yield per million cells was calculated and reported in results.
In addition, tumors were allowed to grow up to day 18 with continued Compound 1 dose, that decreased tumor growth resulting in a significant inhibition p<0.01 in the q.d. group compared to p<0.0001 in BID group. […] Upon non-enzymatic dissociation, cell viability was assessed and subjected to enumeration of CD3^+, CD4^+ or CD8^+ tumor infiltrating T-cells (detailed method, refer section 11).

α2b1/Collagen I = α2b1/Collagen I (Homo sapiens, UniProt P05556+P17301); assay: Integrin activation, adhesion α2b1/Collagen I; assay type: cell-based; parameters: key: Not Active: Not active: ≤2 fold increase in adhesion; details: 50% serum; n = 3
Source text: as §1

α5β1/Fibronectin = α5β1/Fibronectin (Homo sapiens, UniProt P05556+P08648); assay: Integrin activation, adhesion α5β1/Fibronectin; assay type: cell-based; details: 50% serum; n = 3; read-out: Integrin Selectivity EC50 α5β1/Fibronectin
Source text: as §1

[3] = Safety margin (STD 10) and autoimmune toxicity; details: in vivo
[4] = Clinical symptoms in monkeys; assay type: in vivo

α5β1/Fibronectin, sequence (P08648 42-894 limits assumed): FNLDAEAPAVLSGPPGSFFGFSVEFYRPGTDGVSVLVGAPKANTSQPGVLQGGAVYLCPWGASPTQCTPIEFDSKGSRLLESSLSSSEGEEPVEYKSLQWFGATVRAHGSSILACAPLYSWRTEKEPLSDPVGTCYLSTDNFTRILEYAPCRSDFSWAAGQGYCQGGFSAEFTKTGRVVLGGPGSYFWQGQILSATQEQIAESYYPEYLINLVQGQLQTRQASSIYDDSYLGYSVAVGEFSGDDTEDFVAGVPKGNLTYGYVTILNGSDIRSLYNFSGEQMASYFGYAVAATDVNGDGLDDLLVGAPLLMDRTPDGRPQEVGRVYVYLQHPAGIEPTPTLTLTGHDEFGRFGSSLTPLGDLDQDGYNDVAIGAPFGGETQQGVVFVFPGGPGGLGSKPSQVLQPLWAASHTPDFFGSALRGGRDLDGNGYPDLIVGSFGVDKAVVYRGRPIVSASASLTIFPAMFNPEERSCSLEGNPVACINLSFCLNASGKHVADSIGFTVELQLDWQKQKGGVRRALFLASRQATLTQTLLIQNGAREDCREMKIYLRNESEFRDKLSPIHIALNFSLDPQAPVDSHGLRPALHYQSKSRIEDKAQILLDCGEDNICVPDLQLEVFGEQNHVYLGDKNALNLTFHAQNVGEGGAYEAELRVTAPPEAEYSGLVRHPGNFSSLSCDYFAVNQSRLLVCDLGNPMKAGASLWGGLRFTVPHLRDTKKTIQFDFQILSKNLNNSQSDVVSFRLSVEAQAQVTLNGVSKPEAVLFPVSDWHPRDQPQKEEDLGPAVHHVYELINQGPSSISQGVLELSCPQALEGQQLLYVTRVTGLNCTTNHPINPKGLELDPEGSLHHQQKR
α5β1/Fibronectin, sequence (P08648 895-1049 limits assumed): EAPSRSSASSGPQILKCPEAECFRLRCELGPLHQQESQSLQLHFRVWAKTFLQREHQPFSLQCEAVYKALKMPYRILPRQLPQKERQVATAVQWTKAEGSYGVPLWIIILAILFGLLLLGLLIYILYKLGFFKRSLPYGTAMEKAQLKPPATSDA
α5β1/Fibronectin, sequence (P05556 21-798): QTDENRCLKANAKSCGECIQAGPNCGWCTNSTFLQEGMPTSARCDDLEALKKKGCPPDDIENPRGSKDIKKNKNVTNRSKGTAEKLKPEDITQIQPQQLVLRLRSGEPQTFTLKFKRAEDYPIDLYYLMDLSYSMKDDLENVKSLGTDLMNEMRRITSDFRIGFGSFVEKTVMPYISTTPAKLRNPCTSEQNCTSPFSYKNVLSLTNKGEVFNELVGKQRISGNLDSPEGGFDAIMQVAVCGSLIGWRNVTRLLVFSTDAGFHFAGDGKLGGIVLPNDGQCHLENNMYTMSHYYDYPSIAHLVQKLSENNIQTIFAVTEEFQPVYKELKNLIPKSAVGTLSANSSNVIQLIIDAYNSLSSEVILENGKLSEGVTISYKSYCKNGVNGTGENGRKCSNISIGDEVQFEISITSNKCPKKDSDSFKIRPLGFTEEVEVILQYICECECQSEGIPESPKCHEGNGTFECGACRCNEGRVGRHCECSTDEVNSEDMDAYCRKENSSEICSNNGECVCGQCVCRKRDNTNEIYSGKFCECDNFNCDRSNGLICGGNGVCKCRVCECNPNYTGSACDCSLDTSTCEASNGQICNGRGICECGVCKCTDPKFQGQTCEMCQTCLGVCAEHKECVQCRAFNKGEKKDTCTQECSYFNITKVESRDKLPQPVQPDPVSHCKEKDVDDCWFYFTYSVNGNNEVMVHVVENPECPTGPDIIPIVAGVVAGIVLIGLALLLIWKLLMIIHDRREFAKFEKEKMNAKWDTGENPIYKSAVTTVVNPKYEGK
α2b1/Collagen I, sequence (P17301 30-1181): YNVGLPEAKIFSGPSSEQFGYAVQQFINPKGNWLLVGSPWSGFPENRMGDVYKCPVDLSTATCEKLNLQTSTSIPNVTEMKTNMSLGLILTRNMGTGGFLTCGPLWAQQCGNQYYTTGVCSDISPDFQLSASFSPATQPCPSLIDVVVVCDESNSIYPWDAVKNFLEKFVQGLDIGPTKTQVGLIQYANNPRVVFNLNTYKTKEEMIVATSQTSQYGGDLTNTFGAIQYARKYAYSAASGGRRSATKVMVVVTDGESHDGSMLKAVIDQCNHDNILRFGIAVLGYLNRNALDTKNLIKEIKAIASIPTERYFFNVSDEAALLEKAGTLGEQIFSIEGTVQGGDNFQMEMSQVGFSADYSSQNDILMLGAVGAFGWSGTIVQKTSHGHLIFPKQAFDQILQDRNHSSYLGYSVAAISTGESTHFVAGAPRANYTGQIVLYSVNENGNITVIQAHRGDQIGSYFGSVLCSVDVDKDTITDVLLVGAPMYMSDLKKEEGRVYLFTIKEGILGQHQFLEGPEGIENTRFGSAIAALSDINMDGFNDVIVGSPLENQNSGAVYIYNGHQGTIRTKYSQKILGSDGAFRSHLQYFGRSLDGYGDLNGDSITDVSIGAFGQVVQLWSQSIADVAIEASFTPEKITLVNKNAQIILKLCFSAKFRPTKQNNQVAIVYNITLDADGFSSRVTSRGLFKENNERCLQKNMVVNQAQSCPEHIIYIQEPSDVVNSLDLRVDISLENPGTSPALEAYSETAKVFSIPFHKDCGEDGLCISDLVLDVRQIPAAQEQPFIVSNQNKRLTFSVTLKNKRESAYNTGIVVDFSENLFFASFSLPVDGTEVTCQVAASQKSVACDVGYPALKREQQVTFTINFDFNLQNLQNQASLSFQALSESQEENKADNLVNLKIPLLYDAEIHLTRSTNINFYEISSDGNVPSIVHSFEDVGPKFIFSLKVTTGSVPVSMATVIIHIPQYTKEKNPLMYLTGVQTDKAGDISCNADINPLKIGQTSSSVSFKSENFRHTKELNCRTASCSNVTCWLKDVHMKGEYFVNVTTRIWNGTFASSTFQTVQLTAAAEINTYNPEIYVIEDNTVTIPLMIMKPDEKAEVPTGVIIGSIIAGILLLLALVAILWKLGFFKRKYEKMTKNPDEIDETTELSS
α2b1/Collagen I, sequence (P05556 21-798): as the sequence (P05556 21-798) above
aiibb3/Fibrinogen, sequence (P08514 32-887 limits assumed): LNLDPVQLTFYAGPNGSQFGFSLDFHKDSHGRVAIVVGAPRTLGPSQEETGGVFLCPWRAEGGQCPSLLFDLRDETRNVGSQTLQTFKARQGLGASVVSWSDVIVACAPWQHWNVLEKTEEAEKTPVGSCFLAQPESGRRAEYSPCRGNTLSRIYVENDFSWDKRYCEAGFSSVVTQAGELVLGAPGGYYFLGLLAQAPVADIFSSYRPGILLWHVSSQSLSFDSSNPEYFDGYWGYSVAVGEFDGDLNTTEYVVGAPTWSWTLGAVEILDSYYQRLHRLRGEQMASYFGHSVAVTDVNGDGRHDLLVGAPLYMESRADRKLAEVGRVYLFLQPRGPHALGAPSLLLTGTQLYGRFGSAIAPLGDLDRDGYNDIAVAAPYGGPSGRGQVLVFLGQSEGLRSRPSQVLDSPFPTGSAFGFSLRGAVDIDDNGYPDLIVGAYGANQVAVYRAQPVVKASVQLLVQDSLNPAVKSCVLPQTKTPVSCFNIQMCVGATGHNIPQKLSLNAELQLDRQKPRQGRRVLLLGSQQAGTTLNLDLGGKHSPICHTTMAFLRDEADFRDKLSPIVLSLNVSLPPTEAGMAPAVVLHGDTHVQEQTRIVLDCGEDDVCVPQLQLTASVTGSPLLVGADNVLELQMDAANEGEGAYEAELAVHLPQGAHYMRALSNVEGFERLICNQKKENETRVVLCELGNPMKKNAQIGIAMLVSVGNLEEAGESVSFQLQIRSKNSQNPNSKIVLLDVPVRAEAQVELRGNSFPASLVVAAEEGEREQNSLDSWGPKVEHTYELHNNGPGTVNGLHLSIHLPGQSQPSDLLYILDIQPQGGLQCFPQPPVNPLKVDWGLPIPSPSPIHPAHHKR
aiibb3/Fibrinogen, sequence (P08514 891-1039 limits assumed): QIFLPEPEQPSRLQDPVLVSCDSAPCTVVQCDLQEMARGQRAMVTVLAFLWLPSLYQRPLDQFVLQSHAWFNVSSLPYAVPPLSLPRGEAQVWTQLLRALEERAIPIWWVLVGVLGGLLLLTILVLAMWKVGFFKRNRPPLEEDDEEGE
aiibb3/Fibrinogen, sequence (P05106 27-788): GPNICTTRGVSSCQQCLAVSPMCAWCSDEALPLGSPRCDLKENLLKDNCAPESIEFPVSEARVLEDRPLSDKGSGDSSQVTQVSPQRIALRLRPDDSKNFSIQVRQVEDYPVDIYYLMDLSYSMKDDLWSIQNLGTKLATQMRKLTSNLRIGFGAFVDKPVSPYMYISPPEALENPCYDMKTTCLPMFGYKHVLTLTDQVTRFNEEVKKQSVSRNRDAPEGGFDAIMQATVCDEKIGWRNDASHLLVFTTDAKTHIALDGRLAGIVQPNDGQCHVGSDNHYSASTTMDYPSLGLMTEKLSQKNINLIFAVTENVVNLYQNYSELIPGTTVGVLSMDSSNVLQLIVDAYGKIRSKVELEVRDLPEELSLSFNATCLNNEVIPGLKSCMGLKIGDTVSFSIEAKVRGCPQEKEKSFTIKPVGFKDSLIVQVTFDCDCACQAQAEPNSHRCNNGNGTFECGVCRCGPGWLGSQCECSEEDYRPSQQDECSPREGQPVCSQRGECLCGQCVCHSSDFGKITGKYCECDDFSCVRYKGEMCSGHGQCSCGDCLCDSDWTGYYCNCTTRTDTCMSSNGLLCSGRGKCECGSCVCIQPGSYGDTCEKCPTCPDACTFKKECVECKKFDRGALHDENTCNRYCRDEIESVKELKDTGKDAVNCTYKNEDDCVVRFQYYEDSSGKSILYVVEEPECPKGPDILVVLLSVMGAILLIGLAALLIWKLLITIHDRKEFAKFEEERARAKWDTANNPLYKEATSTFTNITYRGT

**Q.** With O=C(OCCOCCOCCOC(=O)N(Cc1cccs1)Cc1cccs1)N(Cc1cccs1)Cc1cccs1 [Compound 1, 3-oxo-1-(2-thienyl)-2-(2-thienylmethyl)-4,7,10-trioxa-2-azadodecan-12-yl bis(2-thienylmethyl)carbamate] as the compound, how does the “Integrin Selectivity EC50 aiibb3/Fibrinogen” value (aiibb3/Fibrinogen) read?
**A.** Not Active

**Q.** And the “% Tumor Growth Inhibition” value ([1]; Study 1, 1 mg/kg IP QD at 4 h, Day 4)?
**A.** 36.1%

**Q.** What about the “% Tumor Growth Inhibition” value ([1]; Study 1, 1 mg/kg IP QD at 4 h, Day 6) of the same compound?
**A.** 41.4%

**Q.** What about the “% Tumor Growth Inhibition” value ([1]; Study 1, 1 mg/kg IP QD at 4 h, Day 8) of the same compound?
**A.** 61.5%

**Q.** What about the “% Tumor Growth Inhibition” value ([1]; Study 1, 1 mg/kg IP QD at 4 h, Day 11) of the same compound?
**A.** 64.4%

**Q.** And the “% Tumor Growth Inhibition” value ([1]; Study 1, 1 mg/kg IP QD at 4 h, Day 13)?
**A.** 55.4%

**Q.** What about the “% Tumor Growth Inhibition” value ([1]; Study 1, 20 mg/kg PO QD at 4 h, Day 4) of the same compound?
**A.** −6.1%

**Q.** What about the “% Tumor Growth Inhibition” value ([1]; Study 1, 20 mg/kg PO QD at 4 h, Day 6) of the same compound?
**A.** 16.5%

**Q.** And the “% Tumor Growth Inhibition” value ([1]; Study 1, 20 mg/kg PO QD at 4 h, Day 8)?
**A.** 38.2%

**Q.** And the “% Tumor Growth Inhibition” value ([1]; Study 1, 20 mg/kg PO QD at 4 h, Day 11)?
**A.** 42.2%

**Q.** What about the “% Tumor Growth Inhibition” value ([1]; Study 1, 20 mg/kg PO QD at 4 h, Day 13) of the same compound?
**A.** 36.2%

**Q.** And the “tolerability in term of body weights of animals” value ([1]; Study 1, oral (20 mg/kg QD) and intraperitoneal (1 mg/kg QD) routes)?
**A.** well tolerated

**Q.** What about the “growth of established CT26 tumors” value ([1]; single agent, orally or intraperitoneally once daily for up to 30 days) of the same compound?
**A.** delayed the growth

**Q.** And the “CD3+ and CD4+ double positive cells in tumor” value ([2]; Study 3, day 19, compared to vehicle control)?
**A.** decreased trend

**Q.** What about the “CD3+ and CD8+ double positive T-cells in tumor” value ([2]; Study 3, day 19, compared to vehicle control, opposite to the decreased CD3+ CD4+ trend) of the same compound?
**A.** trend was opposite

**Q.** What about the “ratio of CD8+/CD4+ T-cells in tumors” value ([2]; single agent, in response to treatment) of the same compound?
**A.** progressive increase

**Q.** What about the “Integrin Selectivity EC50 α2b1/Collagen I” value (α2b1/Collagen I) of the same compound?
**A.** Not Active

**Q.** What about the EC50 (α5β1/Fibronectin) of the same compound?
**A.** 7.7 ± 2.3 µM

**Q.** What about the autoimmune toxicity [3] of the same compound?
**A.** no autoimmune toxicity

**Q.** What about the “safety margin (STD 10)” value [3] of the same compound?
**A.** > 300 times therapeutic exposure

**Q.** And the “exposure up to which no clinical symptoms” value [4]?
**A.** ~50 times therapeutic exposure

**Q.** And the “exposure with no adverse clinical symptoms” value [4]?
**A.** > 50 times therapeutic exposure

Reference: patent US12636274B2, “Pharmaceutical compositions and methods for systemic treatment of solid tumors” (7 HILLS INTERESTS LLC, priority 2014, dated 2026)
